From patent US11981658B2, “Substituted aminopyridine compounds as EGFR inhibitors” (YUHAN CORPORATION, priority 2021, dated 2024)
Where two headings read alike, the source gives them in different places.

Columns and labels:
EGFR Del19/C797S = EGFR Del19/C797S (Homo sapiens, UniProt P00533, C797S/DEL746-750); assay: Biochemical EGFR kinase inhibition assay (Lance Ultra TR-FRET), double mutant del19/C797S
Method in brief: (§1)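 Kinase activity is measured by TR-FRET phosphopeptide detection. Compounds span 0.003 μM to 10 μM; the 1 h reaction at room temperature is quenched with EDTA, then labelled antibody (2 nM) is incubated 60 min before reading.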

EGFR Del19/T790M/C797S = EGFR Del19/T790M/C797S (Homo sapiens, UniProt P00533, C797S/DEL746-750/T790M); assay: Biochemical EGFR kinase inhibition assay (Lance Ultra TR-FRET), triple mutant del19/T790M/C797S
Method in brief: as §1

EGFR L858R/C797S = EGFR L858R/C797S (Homo sapiens, UniProt P00533, C797S/L858R); assay: Biochemical EGFR kinase inhibition assay (Lance Ultra TR-FRET), double mutant L858R/C797S
Method in brief: as §1

EGFR L858R/T790M/C797S = EGFR L858R/T790M/C797S (Homo sapiens, UniProt P00533, C797S/L858R/T790M); assay: Biochemical EGFR kinase inhibition assay (Lance Ultra TR-FRET), triple mutant L858R/T790M/C797S
Method in brief: as §1

EGFR wildtype (WT) = EGFR wildtype (WT) (Homo sapiens, UniProt P00533); assay: Biochemical EGFR kinase inhibition assay (Lance Ultra TR-FRET), wildtype
Method in brief: as §1

[1] = IC50 Del19/C797S (nM), 100 μM ATP
[2] = Km ATP, read-out: IC50 Del19/C797S (nM) Km ATP
[3] = IC50 Del19/T790M/C797S (nM), 100 μM ATP
[4] = Km ATP, read-out: IC50 Del19/T790M/C797S (nM) Km ATP
[5] = IC50 L858R/C797S (nM), 100 μM ATP
[6] = Km ATP, read-out: IC50 L858R/C797S (nM) Km ATP
[7] = IC50 L858R/T790M/C797S (nM), 100 μM ATP
[8] = Km ATP, read-out: IC50 L858R/T790M/C797S (nM) Km ATP
[9] = Km ATP, read-out: IC50 WT (nM) Km ATP

EGFR Del19/T790M/C797S, sequence (P00533 with tags, fused parts or gaps DEL746-750/T790M/C797S): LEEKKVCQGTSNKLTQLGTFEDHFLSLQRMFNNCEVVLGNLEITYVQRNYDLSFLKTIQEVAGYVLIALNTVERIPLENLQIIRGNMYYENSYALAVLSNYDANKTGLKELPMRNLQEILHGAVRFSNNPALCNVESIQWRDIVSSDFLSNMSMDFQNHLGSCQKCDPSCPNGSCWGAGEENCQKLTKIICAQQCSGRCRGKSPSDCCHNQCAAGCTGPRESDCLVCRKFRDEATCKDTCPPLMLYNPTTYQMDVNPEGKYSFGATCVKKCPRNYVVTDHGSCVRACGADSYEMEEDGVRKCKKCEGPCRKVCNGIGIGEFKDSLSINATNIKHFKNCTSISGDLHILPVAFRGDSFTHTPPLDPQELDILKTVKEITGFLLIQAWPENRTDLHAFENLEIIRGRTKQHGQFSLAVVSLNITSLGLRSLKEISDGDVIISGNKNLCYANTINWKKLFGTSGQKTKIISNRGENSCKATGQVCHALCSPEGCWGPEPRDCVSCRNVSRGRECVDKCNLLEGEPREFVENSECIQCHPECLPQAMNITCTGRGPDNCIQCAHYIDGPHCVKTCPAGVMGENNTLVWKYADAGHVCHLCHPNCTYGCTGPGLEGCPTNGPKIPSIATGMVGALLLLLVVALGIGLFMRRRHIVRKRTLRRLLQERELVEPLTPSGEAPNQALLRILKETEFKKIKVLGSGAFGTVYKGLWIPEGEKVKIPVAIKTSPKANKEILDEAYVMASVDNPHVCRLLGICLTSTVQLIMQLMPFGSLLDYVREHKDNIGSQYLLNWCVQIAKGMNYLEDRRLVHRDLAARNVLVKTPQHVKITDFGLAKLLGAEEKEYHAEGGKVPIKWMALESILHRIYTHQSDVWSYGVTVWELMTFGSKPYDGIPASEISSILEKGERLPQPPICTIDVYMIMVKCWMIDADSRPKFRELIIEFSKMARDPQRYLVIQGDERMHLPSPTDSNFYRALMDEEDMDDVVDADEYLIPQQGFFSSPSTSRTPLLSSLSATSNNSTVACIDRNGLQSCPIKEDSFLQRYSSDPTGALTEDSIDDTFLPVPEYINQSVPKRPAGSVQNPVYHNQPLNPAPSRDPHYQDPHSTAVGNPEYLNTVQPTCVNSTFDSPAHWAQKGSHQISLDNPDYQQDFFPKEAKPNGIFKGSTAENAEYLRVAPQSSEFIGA
EGFR wildtype (WT), sequence (P00533 25-1210): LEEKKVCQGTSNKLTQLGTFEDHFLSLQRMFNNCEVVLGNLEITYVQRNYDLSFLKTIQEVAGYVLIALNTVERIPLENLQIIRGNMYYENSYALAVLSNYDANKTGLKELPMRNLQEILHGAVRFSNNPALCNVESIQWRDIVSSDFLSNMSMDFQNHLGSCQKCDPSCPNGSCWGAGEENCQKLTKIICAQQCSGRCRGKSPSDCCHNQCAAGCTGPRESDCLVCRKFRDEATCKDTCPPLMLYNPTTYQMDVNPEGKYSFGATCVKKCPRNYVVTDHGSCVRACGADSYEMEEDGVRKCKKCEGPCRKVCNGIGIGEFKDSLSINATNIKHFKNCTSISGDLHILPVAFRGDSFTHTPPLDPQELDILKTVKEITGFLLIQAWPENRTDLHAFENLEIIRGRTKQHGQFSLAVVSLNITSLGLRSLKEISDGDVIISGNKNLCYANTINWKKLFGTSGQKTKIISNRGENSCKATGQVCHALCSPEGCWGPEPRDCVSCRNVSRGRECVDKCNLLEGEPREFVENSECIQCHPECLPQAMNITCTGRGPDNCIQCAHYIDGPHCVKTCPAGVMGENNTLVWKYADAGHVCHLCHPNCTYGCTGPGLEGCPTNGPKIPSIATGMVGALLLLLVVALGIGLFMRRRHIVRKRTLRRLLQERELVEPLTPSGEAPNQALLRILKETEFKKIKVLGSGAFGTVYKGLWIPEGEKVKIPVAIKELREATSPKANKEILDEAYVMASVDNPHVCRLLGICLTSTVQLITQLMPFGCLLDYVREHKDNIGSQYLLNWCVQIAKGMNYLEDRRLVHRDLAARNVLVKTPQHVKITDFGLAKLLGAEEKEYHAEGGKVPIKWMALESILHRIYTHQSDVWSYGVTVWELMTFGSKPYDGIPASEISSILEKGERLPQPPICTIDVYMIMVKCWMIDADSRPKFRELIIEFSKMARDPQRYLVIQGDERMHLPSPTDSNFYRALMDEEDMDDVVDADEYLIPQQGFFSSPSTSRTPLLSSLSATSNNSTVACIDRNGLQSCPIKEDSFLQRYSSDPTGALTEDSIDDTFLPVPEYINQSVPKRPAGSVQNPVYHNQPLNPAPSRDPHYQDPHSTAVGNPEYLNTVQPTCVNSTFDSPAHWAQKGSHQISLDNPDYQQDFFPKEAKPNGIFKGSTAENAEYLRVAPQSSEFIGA
EGFR Del19/C797S, sequence (P00533 with tags, fused parts or gaps DEL746-750/C797S): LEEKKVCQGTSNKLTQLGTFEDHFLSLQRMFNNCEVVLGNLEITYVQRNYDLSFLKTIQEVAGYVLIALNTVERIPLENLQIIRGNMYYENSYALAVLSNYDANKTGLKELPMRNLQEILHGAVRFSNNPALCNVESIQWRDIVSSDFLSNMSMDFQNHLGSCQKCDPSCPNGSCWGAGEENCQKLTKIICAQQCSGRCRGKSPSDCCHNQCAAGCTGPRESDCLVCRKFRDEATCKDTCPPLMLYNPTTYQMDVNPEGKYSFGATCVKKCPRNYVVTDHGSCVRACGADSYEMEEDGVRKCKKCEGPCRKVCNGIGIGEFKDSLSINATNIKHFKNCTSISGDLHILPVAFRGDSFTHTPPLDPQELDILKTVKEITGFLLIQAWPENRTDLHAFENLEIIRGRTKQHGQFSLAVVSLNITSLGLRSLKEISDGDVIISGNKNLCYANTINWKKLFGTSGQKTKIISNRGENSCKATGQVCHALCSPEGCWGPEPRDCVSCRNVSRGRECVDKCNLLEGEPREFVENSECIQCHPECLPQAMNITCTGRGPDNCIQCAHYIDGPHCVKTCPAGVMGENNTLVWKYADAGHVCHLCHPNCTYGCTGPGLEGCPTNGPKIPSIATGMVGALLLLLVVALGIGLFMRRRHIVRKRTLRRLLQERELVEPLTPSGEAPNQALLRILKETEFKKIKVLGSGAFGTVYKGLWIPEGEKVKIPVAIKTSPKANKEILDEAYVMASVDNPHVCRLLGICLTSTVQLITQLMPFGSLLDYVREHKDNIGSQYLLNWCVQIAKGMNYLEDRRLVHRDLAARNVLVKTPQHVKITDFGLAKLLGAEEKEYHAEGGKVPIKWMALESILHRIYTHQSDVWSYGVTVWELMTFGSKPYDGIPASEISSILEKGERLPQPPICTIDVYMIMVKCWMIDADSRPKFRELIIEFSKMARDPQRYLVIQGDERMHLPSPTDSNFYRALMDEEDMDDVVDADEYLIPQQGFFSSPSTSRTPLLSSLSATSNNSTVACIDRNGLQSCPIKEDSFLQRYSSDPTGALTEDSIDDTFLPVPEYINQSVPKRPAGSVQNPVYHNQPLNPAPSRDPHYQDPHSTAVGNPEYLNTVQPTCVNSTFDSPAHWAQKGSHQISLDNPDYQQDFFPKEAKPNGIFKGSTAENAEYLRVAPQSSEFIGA
EGFR L858R/C797S, sequence (P00533 25-1210 C797S/L858R): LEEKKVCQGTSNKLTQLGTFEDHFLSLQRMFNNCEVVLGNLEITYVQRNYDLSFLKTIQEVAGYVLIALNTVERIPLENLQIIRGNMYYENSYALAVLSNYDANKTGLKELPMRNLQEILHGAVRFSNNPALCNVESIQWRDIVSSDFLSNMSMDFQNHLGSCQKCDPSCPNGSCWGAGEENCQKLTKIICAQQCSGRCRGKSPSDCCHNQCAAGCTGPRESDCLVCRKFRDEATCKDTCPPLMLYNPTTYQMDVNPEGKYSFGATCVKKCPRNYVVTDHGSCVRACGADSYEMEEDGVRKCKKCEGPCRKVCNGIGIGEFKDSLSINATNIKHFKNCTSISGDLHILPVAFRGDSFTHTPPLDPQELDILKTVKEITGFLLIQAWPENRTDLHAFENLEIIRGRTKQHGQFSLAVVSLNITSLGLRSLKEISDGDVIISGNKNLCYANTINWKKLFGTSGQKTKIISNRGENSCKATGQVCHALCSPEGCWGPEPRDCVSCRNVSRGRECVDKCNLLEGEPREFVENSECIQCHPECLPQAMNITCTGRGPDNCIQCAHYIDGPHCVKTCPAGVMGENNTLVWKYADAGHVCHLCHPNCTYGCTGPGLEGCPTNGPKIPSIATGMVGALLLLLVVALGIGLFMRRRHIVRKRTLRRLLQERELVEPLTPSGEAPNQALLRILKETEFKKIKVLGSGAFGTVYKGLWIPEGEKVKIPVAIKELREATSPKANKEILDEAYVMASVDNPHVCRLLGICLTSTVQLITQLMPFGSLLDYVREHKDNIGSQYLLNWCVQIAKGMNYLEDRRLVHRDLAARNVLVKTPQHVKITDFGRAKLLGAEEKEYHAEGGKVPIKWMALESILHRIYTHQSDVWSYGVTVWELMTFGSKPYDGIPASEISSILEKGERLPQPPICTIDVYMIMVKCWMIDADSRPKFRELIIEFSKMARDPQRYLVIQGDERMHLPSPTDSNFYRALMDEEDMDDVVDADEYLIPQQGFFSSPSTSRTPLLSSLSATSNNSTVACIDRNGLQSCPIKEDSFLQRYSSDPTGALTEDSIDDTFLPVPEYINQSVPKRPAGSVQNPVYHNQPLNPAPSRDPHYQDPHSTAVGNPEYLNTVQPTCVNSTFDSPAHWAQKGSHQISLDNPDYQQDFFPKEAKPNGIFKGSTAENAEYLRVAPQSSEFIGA

Compound | IC50 (EGFR Del19/C797S; [1]) [nM] | IC50 (EGFR Del19/C797S; [2]) [nM] | IC50 (EGFR Del19/T790M/C797S; [3]) [nM] | IC50 (EGFR Del19/T790M/C797S; [4]) [nM] | IC50 (EGFR L858R/C797S; [5]) [nM] | IC50 (EGFR L858R/C797S; [6]) [nM] | IC50 (EGFR L858R/T790M/C797S; [7]) [nM] | IC50 (EGFR L858R/T790M/C797S; [8]) [nM] | IC50 (EGFR wildtype (WT); IC50 WT (nM), 100 μM ATP) [nM] | IC50 (EGFR wildtype (WT); [9]) [nM]
CC(=O)N1CCC(n2cc(C#Cc3cnc(Nc4ccnc(-c5cnn(S(=O)(=O)C6CC6)c5)n4)cc3N3CCC(F)CC3)cn2)CC1 [Example 112, 1-(4-(4-((6-((2-(1-(Cyclopropylsulfonyl)-1H-pyrazol-4-yl)pyrimidin-4-yl)amino)-4-(4-fluoropiperidin-1-yl)pyridin-3-yl)ethynyl)-1H-pyrazol-1-yl)piperidin-1-yl)ethan-1-one] | 5.2 | 4.6 | 1.5 | 1.5 | 17.1 | 2.8 | 2.8 | 1.1 | > 10000 | 21.3
COC1CCN(c2cc(Nc3ccnc(-c4cnn(S(=O)(=O)C5CC5)c4)n3)ncc2C#Cc2cnn(C3CCN(C(C)=O)CC3)c2)CC1 [Example 113, 1-(4-(4-((6-((2-(1-(Cyclopropylsulfonyl)-1H-pyrazol-4-yl)pyrimidin-4-yl)amino)-4-(4-methoxypiperidin-1-yl)pyridin-3-yl)ethynyl)-1H-pyrazol-1-yl)piperidin-1-yl)ethan-1-one] | 4 | 3.2 | 1.3 | 1.3 | 11.3 | 2.6 | 2.9 | 0.8 | 7550 | 12
CC(=O)N1CCC(n2cc(C#Cc3cnc(Nc4ccnc(-c5cnn(S(=O)(=O)C6CC6)c5)n4)cc3N3CCCC(O)C3)cn2)CC1 (stereo not shown) [Example 114, 1-(4-(4-((6-((2-(1-(Cyclopropylsulfonyl)-1H-pyrazol-4-yl)pyrimidin-4-yl)amino)-4-(3-hydroxypiperidin-1-yl)pyridin-3-yl)ethynyl)-1H-pyrazol-1-yl)piperidin-1-yl)ethan-1-one] | 9.5 | 5.4 | 0.5 | 0.5 | 13.7 | 2.6 | 1.7 | 0.6 | > 10000 | 17.4
CC(=O)N1CCC(n2cc(C#Cc3cnc(Nc4ccnc(-c5cnn(S(=O)(=O)C6CC6)c5)n4)cc3N3CCCC(CO)C3)cn2)CC1 (stereo not shown) [Example 115, 1-(4-(4-((6-((2-(1-(Cyclopropylsulfonyl)-1H-pyrazol-4-yl)pyrimidin-4-yl)amino)-4-(3-(hydroxymethyl)piperidin-1-yl)pyridin-3-yl)ethynyl)-1H-pyrazol-1-yl)piperidin-1-yl)ethan-1-one] | 8.1 | 5.4 | 1.2 | 0.9 | 15.6 | 2.9 | 2.3 | 0.9 | > 10000 | 19.6
CN(C)CCn1cc(C#Cc2cnc(Nc3ccnc(-c4cnn(S(=O)(=O)C5CC5)c4)n3)cc2N2CCC(C)(CO)CC2)cn1 [Example 116, (1-(2-((2-(1-(Cyclopropylsulfonyl)-1H-pyrazol-4-yl)pyrimidin-4-yl)amino)-5-((1-(2-(dimethylamino)ethyl)-1H-pyrazol-4-yl)ethynyl)pyridin-4-yl)-4-methylpiperidin-4-yl)methanol] | 0.6 | 0.3 | 0.4 | 0.3 | 1 | 0.2 | 0.3 | 0.2 | 143 | 1
CN(C)CCn1cc(C#Cc2cnc(Nc3ccnc(-c4cnn(S(=O)(=O)C5CC5)c4)n3)cc2N2CCC(F)(CO)CC2)cn1 [Example 117, (1-(2-((2-(1-(Cyclopropylsulfonyl)-1H-pyrazol-4-yl)pyrimidin-4-yl)amino)-5-((1-(2-(dimethylamino)ethyl)-1H-pyrazol-4-yl)ethynyl)pyridin-4-yl)-4-fluoropiperidin-4-yl)methanol] | 0.7 | 0.4 | 0.4 | 0.3 | 3.4 | 0.3 | 0.3 | 0.2 | 1020 | 3.7
CN(C)CCn1cc(C#Cc2cnc(Nc3ccnc(-c4cnn(S(=O)(=O)C5CC5)c4)n3)cc2N2CCCC(CO)C2)cn1 (stereo not shown) [Example 118, (1-(2-((2-(1-(Cyclopropylsulfonyl)-1H-pyrazol-4-yl)pyrimidin-4-yl)amino)-5-((1-(2-(dimethylamino)ethyl)-1H-pyrazol-4-yl)ethynyl)pyridin-4-yl)piperidin-3-yl)methanol] | 0.8 | 0.7 | 0.6 | 0.5 | 8.5 | 0.6 | 0.5 | 0.2 | 2690 | 10.2
CN(C)CCCn1cc(C#Cc2cnc(Nc3ccnc(-c4cnn(S(=O)(=O)C5CC5)c4)n3)cc2N2CCC(C)(CO)CC2)cn1 [Example 120, (1-(2-((2-(1-(Cyclopropylsulfonyl)-1H-pyrazol-4-yl)pyrimidin-4-yl)amino)-5-((1-(3-(dimethylamino)propyl)-1H-pyrazol-4-yl)ethynyl)pyridin-4-yl)-4-methylpiperidin-4-yl)methanol] | 0.8 | 0.5 | 0.7 | 0.7 | 1.3 | 0.3 | 0.5 | 0.3 | 212 | 1.6
CN(C)CCCn1cc(C#Cc2cnc(Nc3ccnc(-c4cnn(S(=O)(=O)C5CC5)c4)n3)cc2N2CCC(F)(CO)CC2)cn1 [Example 121, (1-(2-((2-(1-(Cyclopropylsulfonyl)-1H-pyrazol-4-yl)pyrimidin-4-yl)amino)-5-((1-(3-(dimethylamino)propyl)-1H-pyrazol-4-yl)ethynyl)pyridin-4-yl)-4-fluoropiperidin-4-yl)methanol] | 0.5 | 0.3 | 0.3 | 0.3 | 4.1 | 0.3 | 0.3 | 0.1 | 783 | 3.1
CN(C)CCCn1cc(C#Cc2cnc(Nc3ccnc(-c4cnn(S(=O)(=O)C5CC5)c4)n3)cc2N2CCCC(CO)C2)cn1 (stereo not shown) [Example 122, (1-(2-((2-(1-(Cyclopropylsulfonyl)-1H-pyrazol-4-yl)pyrimidin-4-yl)amino)-5-((1-(3-(dimethylamino)propyl)-1H-pyrazol-4-yl)ethynyl)pyridin-4-yl)piperidin-3-yl)methanol] | 0.8 | 0.6 | 0.5 | 0.4 | 11.8 | 0.5 | 0.5 | 0.2 | 2780 | 7.8
CN(C)CCCn1cc(C#Cc2cnc(Nc3ccnc(-c4cnn(S(=O)(=O)C5CC5)c4)n3)cc2N[C@H]2CC[C@@H](O)CC2)cn1 [Example 123, (1s,4s)-4-((2-((2-(1-(Cyclopropylsulfonyl)-1H-pyrazol-4-yl)pyrimidin-4-yl)amino)-5-((1-(3-(dimethylamino)propyl)-1H-pyrazol-4-yl)ethynyl)pyridin-4-yl)amino)cyclohexan-1-ol] | 0.6 | 0.3 | 0.4 | 0.4 | 4.3 | 0.3 | 0.4 | 0.1 | 1080 | 3.6
Cn1cc(C#Cc2cnc(Nc3ccnc(-c4cnn(S(=O)(=O)C5CC5)c4)n3)cc2N2CCC(NCC3CC3)CC2)cn1 [Example 124, N-(4-(4-((Cyclopropylmethyl)amino)piperidin-1-yl)-5-((1-methyl-1H-pyrazol-4-yl)ethynyl)pyridin-2-yl)-2-(1-(cyclopropylsulfonyl)-1H-pyrazol-4-yl)pyrimidin-4-amine] | 26.3 |  | 3 |  | 154 |  | 2.6 |  | > 10000 | 
CC(C)CCNC1CCN(c2cc(Nc3ccnc(-c4cnn(S(=O)(=O)C5CC5)c4)n3)ncc2C#Cc2cnn(C)c2)CC1 [Example 125, 2-(1-(Cyclopropylsulfonyl)-1H-pyrazol-4-yl)-N-(4-(4-(isopentylamino)piperidin-1-yl)-5-((1-methyl-1H-pyrazol-4-yl)ethynyl)pyridin-2-yl)pyrimidin-4-amine] | 34.2 |  | 5.6 |  | 330 |  | 5.6 |  | > 10000 | 
Cn1cc(C#Cc2cnc(Nc3ccnc(-c4cnn(S(=O)(=O)C5CC5)c4)n3)cc2N2CCC(NCC(F)F)CC2)cn1 [Example 126, 2-(1-(Cyclopropylsulfonyl)-1H-pyrazol-4-yl)-N-(4-(4-((2,2-difluoroethyl)amino)piperidin-1-yl)-5-((1-methyl-1H-pyrazol-4-yl)ethynyl)pyridin-2-yl)pyrimidin-4-amine] | 1.6 | 1.4 | 1.7 | 0.6 | 11.5 | 1.8 | 0.9 | 0.3 | > 10000 | 35
